Holding throughout (assay type): cell-based, human
Assay [1] deals with NHK-young (keratinocytes from young individuals). Briefly: Cell adhesion of NHK-young to immobilized peptide. As to the method:
Dose-dependent cell adhesion of NHK-10 years versus NHK-71 years (A) and NHK-11 years versus NHK-60 years (B) peptides TALRIRATYHEY. The peptides were immobilized in 96-well plates at the concentrations given on the abscissa. 3.5×10^4 (A) cells and 4.3×10^4 (B) cells were deposited in each well and plates were incubated at 37° C. for 1 hour. After washing, attached cells were fixed and cell adhesion was measured as described in the methodology section (C). Cells were observed by phase contrast microscopy then photographed. Bar=50 μm.
In order to obtain keratinocytes originating from biopsies taken from young and old individuals and taken from the same anatomical site, the inventors conducted a study of facial skin biopsies. The area of the face situated behind the ears was chosen in order to study only intrinsic aging and to overcome the effects of photo-induced aging. Surgery waste from cosmetic surgery (face lifts) in older individuals and surgery waste from detached ears in young children was collected. It is essential to use biopsies collected on the same day as surgery was performed in order to quickly place the epidermal keratinocytes in culture. Cells from biopsies on elderly individuals (60, 63 and 71 years) and young individuals (8, 10 and 11 years) were used for this study. The keratinocytes were obtained by means of the technique described by Boyce and Ham, 1985. After careful washing in PBS buffer containing antibiotics, fatty tissue located under the dermis was removed from the skin fragments using sterile instruments. Skin was then cut into 3 mm^2 sections which were placed in a sterile solution of 0.25% trypsin in PBS for 16 hours at 4° C. Dermis/epidermis separation was performed using tweezers in a Petri dish containing culture medium in order to stop the enzyme action of trypsin. Epidermal fragments were then aspirated and blown out several times using a pipette in order to detach free basal cells. […]

The test system of assay [2] is HT1080 cells. As to the kind of experiment: Cell proliferation test (XTT), HT1080. The conditions noted are these: HT1080, peptide 0.5% and 1%, serum-free medium, 5th hour. As for the experimental part: HT1080 cells (A) and HBL100 cells (B) were seeded in 96-well plates at a rate of 10,000 cells per well. After 24 hours, the culture medium was removed and replaced with serum-free medium containing the peptide quantities given in the graphs and reagent XTT. The plates were then placed in the incubator at 37° C. and absorbance readings were taken at 1 h, 2 h, 3 h, 4 h and 5 h. Peptide-free controls were carried out on the same plate.
The effect of the peptide on cell proliferation was analysed with the aid of a calorimetric test (Cell Proliferation Kit XTT, Roche Diagnostics, Meylan, France) on the cells use for the cell adhesion test, i.e. HT1080, A431, HBL100 cells and normal human keratinocytes from young and elderly individuals.
The chemical reaction used in the test is based on the production of NADPH by living cells, leading to the reduction of yellow tetrazolium XTT salts to orange formazan salts. Absorbance was measured at 490 nm using an ELISA plate reader. Cells were seeded in 96-well plates at a rate of 10,000 cells per well (6 wells/condition) in KBM-2 culture medium. After 24 hours in culture at 37° C. with 5% CO2, the culture medium was removed and replaced with serum-free medium containing the peptide quantities given in the graphs and the test reagent. The plates were then placed in the incubator at 37° C. and absorbance readings were taken at 1 h, 2 h, 3 h, 4 h and 5 h. […]
(Tetrazolium assays rely on reduction of a dye to a coloured formazan, in cell work by metabolically active cells.)

Assay [3] deals with NHK-old. Briefly: Cell adhesion of NHK-old to peptide co-immobilized with laminin 5. As for the experimental part:
The peptide (variable quantities indicated) and laminin 5 (fixed quantity 0.2 mg) were co-immobilized in 96-well plates. 3×104 NHK-8 years and 3×104 NHK-63 years were deposited in each well and plates were incubated at 37° C. for 1 hour. After washing, attached cells were fixed and cell adhesion was measured as described in the methodology section. Cell adhesion in the presence of the peptide is given as a percentage of cell adhesion obtained with laminin 5 alone.
The effect of peptide TALRIRATYGEY (SEQ ID NO. 1) on adhesion to LN5 was verified with NHK-old (FIG. 16). NHK-young ([…]) was tested in parallel and 30,000 cells/well were used in both cases (NHK-old is always limiting as it is obtained in lower amounts). In general, the results obtained in the course of this experiment are less marked than those in the experiment presented in FIG. 14 since (1) the number of cells is lower (30,000 instead of 50,000) and (2) the peptide range tested is also smaller. […] This effect, less marked than the effect found with NHK-young, is probably linked to the decreased adhesion with age of NHK-old to peptide TALRIRATYGEY (SEQ ID NO.1) (FIG. 6).

For the sequence “TALRIRATYGEY (Human laminin 5) [Peptide 1]”, the “deposited peptide quantity triggering adhesion” value in assay [1] (NHK-young) is 0.08 µg. Further, the “cell adhesion to immobilized peptide” value in assay [1] (NHK-young, 0 to 5 micrograms per well, 1 hour 37° C.) is given as “triggered dose-dependent cell adhesion”. Also, in assay [1] (both experiments (10 vs 71 years, 11 vs 60 years), identical cell numbers), the “number of NHK-young cells attached compared to NHK-old (fold)” value was around 2. Also, the “mean increase in cell proliferation compared to the control” value in assay [2] turned out to be 8%. Moreover, in assay [3] (NHK-63 years, 30,000 cells/well, laminin 5 fixed quantity 0.2 mg), the “effect on adhesion of NHK-old to LN5 (co-immobilized)” value is “potentializing effect”. Moreover, in assay [3] (NHK-old vs NHK-young, 30,000 cells/well), the “effect on NHK-old adhesion to LN5 compared with NHK-young” value is given as “less marked”.

For the origin of these results see patent US7645740B2, “Peptide sequence found in Laminin 5 for treating skin impairments” (Laboratoires d'Anjou Centre National de la Recherche …, priority 2004, dated 2010).
